The values that follow come from paper PMC6459586, “Structure-Based Design of MptpB Inhibitors That Reduce Multidrug-Resistant Mycobacterium tuberculosis Survival and Infection Burden in Vivo” (Journal of Medicinal Chemistry, 2018).

Data set [1] is classed as in vitro ADME. The following applies: human, microsomes, 1 µM. As to the method: Data analysis was performed using Excel (Microsoft, USA).
Human liver microsomes were commercially obtained (Invitrogen, USA). All microsomes were stored at -80 °C. Liver microsomal stability studies were performed manually using the substrate depletion approach, drug was incubated at 37 °C with human liver microsomes (0.5 mg.mL-1) at a final substrate concentration of 1 µM. Aliquots were removed from the incubation at 0, 5, 15, 30 and 45 min and the reaction was terminated by adding to ice-cold organic solvent. Compound concentrations were determined by LC-MS/MS analysis. The natural log of the percentage of compound remaining was plotted against each time point and the slope determined. The half-life (t1/2) and CLint were calculated using Equations 1 and 2, respectively.
CLint (µL.min-1.mg-1) = (LN(2)/t1/2(min))*1000/microsomal protein (mg.mL-1)a Eq. 2 a or cell density (106 cells.mL-1) or P450 concentration (pmol.mL-1)
Percentage liver blood flow (%LBF) was determined by dividing Cl by liver blood flow (20.7 mL/min/kg). Data analysis was performed using Excel (Microsoft, USA).

Data set [2] can be described thus: physchem. It counts as physicochemical. The following applies: for logD: pH 7.4. As to the method: (§1) C = (CD(t) × VD) + (CA(t) × VA )
(§2) % Mass Retention = 1 − (CD(t) × VD) + (CA(t) × VA)
(§3) A = Filter Area, VD = Donor Well Volume, VA = Acceptor Well Volume, t = incubation time (secs), CA(t) = Acceptor concentration at time t, CD(t) =Donor concentration at time t, C0 = Initial Donor concentration.
(§4) No Permeability is reported for compounds where % Mass Retention exceeds 50%.
(§5) ADME determinations for compounds in Suppl. Table 2 (Data kindly supplied by […]
(§6) The chemicals used in the assay were supplied by Sigma Aldrich. Briefly, 30 µL of a 20 mM stock solution of the compound to test was added to a vial containing 1. 5 mL of pH 7.4 phosphate buffer saturated octanol and 1.5 mL of octanol saturated pH 7.4 phosphate buffer. The vial was then shaken on a reciprocating shaker at 125 rpm for 40 min.
(§7) Following centrifugation to ensure phase separation, the concentration of the compound in both the octanol and buffer phases was measured by LC -UV. The Log D was then calculated as the Log of ratio of the concentration of compound in the octanol phase to that in the […]
(§8) 1 mL of buffer was added to 1.0 mg of compound and then incubated for 24 hr (Bioshake iQ, 650 rpm, 25 °C). Following filtration under positive pressure, the concentration of compound in solution was assessed by LC -UV in comparison to the response for a kno wn […]
(§9) A known concentration of drug in plasma (20 µM) was dialysed against phosphate buffer for 18 hr at 37 °C. The concentration of compound in the protein-containing and protein-free sides of the dialysis plate were determined by LC-MS/MS. The methodology uses either 100% plasma or plasma diluted with phosphate buffer. The routine operation of the assay employed 10% plasma diluted with phosphate buffer to enable the detection of highly bound compounds. Results were corrected to reflect the result if diluted plasma was […]
(§10) Briefly, monolayer integrity was measured before the assay was initiated measuring the transepithelial electrical resistance values (Ω). Compound was added to either apical (A) or basolateral (B) chamber at a final concentration of 10 µM and after 2 hr incubation at 37 °C, an aliquot from the opposite side of the monolayer was removed and quantified by LC-MS/MS. The apparent permeability (P app) was calculated using Equation 6 :
(§11) Papp [cm.s-1] = (V/(A.C i)) × (Cf/T) Eq.6
(§12) Where V = volume of recipient chamber (mL), A = surface area of membrane insert (cm2), Ci = initial concentration of compound (µM), Cf = final concentration of compound (µM), T = assay time (s). Efflux ratio = Papp B to A / Papp A to B.

Data set [3] in a line: in vitro. In kind it is in vitro ADME, canine. The following applies: dog, MDCK. How it is done:
as §1, §2, §3, §4, §5, §6, §7, §8, §9, §10, §11, §12

A short description of data set [4]: Pharmacokinetic evaluation in guinea pigs. It counts as in vivo. The following applies: guinea pig; for AUCinf / Cmax: in vivo, po; for t1/2: oral, dose mg/kg: 13 8, 5 5, 8 3.5, 9 5. As to the method:
Guinea pig males (Durkin Hartley) were used to evaluate the pharmacokinetics and tissue distribution of compounds. The route of administration was either intraperitoneal (ip) or oral (po) with dosage varying from 3.5 to 8 mg kg^–1 (op) and 2.5–4 mg kg^–1 (ip). In each case 4 samples were collected per time point at 0.1, 0.5, 2, 4, and 8 h post dose for ip and 0.25, 0.5, 2, 4, and 8 h post dose for po. Compounds were prepared in 10% DMSO, 5% Cremaphor, and 85% physiological saline for IP administration or 0.5% (v/v) Tween 80, 99.5% (v/v) 0.5% methylcellulose for oral administration. Tissue samples (n = 4) from lung, liver, and kidney were collected at the end of the study and snap frozen prior to bioanalysis.

The nature of data set [5]: in vitro. It counts as in vitro ADME. The conditions noted are these: plasma. As to the method: as §1, §2, §3, §4, §5, §6, §7, §8
A known concentration of drug in plasma (20 µM) was dialysed against phosphate buffer for 18 hr at 37 °C. The concentration of compound in the protein-containing and protein-free sides of the dialysis plate were determined by LC-MS/MS. The methodology uses either 100% plasma or plasma diluted with phosphate buffer. […]
Briefly, monolayer integrity was measured before the assay was initiated measuring the transepithelial electrical resistance values (Ω). Compound was added to either apical (A) or basolateral (B) chamber at a final concentration of 10 µM and after 2 hr incubation at 37 °C, an aliquot from the opposite side of the monolayer was removed and quantified by LC-MS/MS. The apparent permeability (P app) was calculated using Equation 6 : […]

Data set [6] relates to M. tuberculosis H37Rv. Kind of data set: Acute guinea pig model of TB infection. The following applies: 28 days of treatment, oral daily, 13 100 mg/kg, RIF 50 mg/kg. It counts as in vivo.
The subject of data set [7] is M. tuberculosis. It counts as in vivo, guinea pig.
In data set [8] the target is MptpB (Mycobacterium tuberculosis, UniProt I6WXK4). Kind of data set: biochemical. Also on record: species or system M. tuberculosis.
The mark [9] stands for this setting: chronic model, 28 days of treatment from day 28, oral daily, 13 100 mg/kg, RIF 50 mg/kg.

pIC50: −log10 of the molar value. In brackets after ≈: the same amount, converted by molar mass.

Sequence of MptpB (I6WXK4 whole entry, looked up): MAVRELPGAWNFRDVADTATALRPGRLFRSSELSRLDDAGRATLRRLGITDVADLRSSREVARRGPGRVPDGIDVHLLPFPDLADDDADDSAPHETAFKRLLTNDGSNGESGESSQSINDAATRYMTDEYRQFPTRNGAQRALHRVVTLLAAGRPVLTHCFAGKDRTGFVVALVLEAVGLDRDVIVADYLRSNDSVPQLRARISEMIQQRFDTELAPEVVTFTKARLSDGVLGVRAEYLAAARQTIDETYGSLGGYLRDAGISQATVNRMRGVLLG

In the case of `Cc1cc(-c2cccc(-c3c(C(=O)O)noc3-c3ccccc3)c2)cc(C)c1O` [Compound 9, 4-(3′,5′-Dimethyl-4′-hydroxy-3-biphenyl)-5-phenylisoxazole-3-carboxylic Acid], in data set [1], the “HLM CLint (% LBF)” value worked out at 36.4 % LBF. Further, in data set [2], the solubility at 24 h is over 1250 µg/mL and the logD stood at 1.37. This molecule also had a Papp at 2 h, 10 µM in data set [3] of 5.8 ×10⁻⁶ cm/s. For the same molecule, in data set [4], the AUCinf entry was “BLQ”, the Cmax result was “BLQ” and the t1/2 entry is given as “BLQ”. This molecule came in with a fraction unbound at 18 h, 20 µM in data set [5] of 0.001.

As to `O=C(O)c1noc(-c2ccccc2)c1-c1cccc(-c2ccc(O)c(F)c2)c1` [Compound 11, 4-(3′-Fluoro-4′-hydroxy-3-biphenyl)-5-phenylisoxazole-3-carboxylic Acid], the “HLM CLint (% LBF)” value in data set [1] came to 47.7 % LBF. Moreover, in data set [2], the solubility at 24 h is over 1250 µg/mL and the logD turned out to be 0.67. Further, in data set [3], the Papp at 2 h, 10 µM turned out to be 2.7 ×10⁻⁶ cm/s and the efflux ratio at 2 h, 10 µM stood at 0.7. The molecule further came in with a fraction unbound at 18 h, 20 µM in data set [5] of 0.002.

For `CO[C@H]1/C=C/O[C@@]2(C)Oc3c(C)c(O)c4c(O)c(c(/C=N/N5CCN(C)CC5)c(O)c4c3C2=O)NC(=O)/C(C)=C\C=C\[C@H](C)[C@H](O)[C@@H](C)[C@@H](O)[C@@H](C)[C@H](OC(C)=O)[C@@H]1C` [RIF, rifampicin, reference compound], in data set [6], the “Lungs infection burden, average” value is listed as “BLQ” and the “Spleen infection burden, average” value is reported as “BLQ”. For the same molecule, in data set [7] (setting [9]), the “Lungs infection burden, average” value came to 3.7 log CFU; the “Lungs log reduction relative to vehicle” value came out at 2.0 log; the “Spleen infection burden, average” value is listed as “BLQ”; the “Spleen log reduction relative to vehicle” value is listed as over 5.0 log. Also, in data set [7] (guinea pig, in vivo), the “Lungs weight % change relative to Vehicle” value is on record as -29%; the “Lungs weight, average” value was determined as 3.8 g; the “Spleen weight % change relative to Vehicle” value was -73%; the “Spleen weight, average” value is on record as 0.7 g.

In the case of `O=C(O)c1noc(-c2ccccc2)c1-c1cccc(-c2ccc(O)c(Cl)c2)c1` [Compound 10, 4-(3′-Chloro-4′-hydroxy-3-biphenyl)-5-phenylisoxazole-3-carboxylic Acid], the “HLM CLint (% LBF)” value in data set [1] amounted to 33 % LBF. In data set [2], this molecule returned a solubility at 24 h of over 1250 µg/mL and a logD of 1.3. Besides, in data set [3], the Papp at 2 h, 10 µM is 3.3 ×10⁻⁶ cm/s and the efflux ratio at 2 h, 10 µM is 0.8. Also, in data set [5], the fraction unbound at 18 h, 20 µM was found to be 0.001.

Turning to `O=C(O)c1cc(-c2ccccc2)on1` [Compound 1, 5-Phenylisoxazole-3-carboxylic Acid], the pIC50 in data set [8] (IC50 (molecular formula strings csv)) and in data set [8] (IC50 MptpB) was under 3.30 each time.

For the molecule `O=C(O)c1noc(-c2ccccc2)c1-c1cccc(-c2cc(Cl)c(O)c(Cl)c2)c1` [Compound 5, 4-(3′,5′-Dichloro-4′-hydroxy-3-biphenyl)-5-phenylisoxazole-3-carboxylic Acid], in data set [1], the “HLM CLint (% LBF)” value came to 31 % LBF. Further, in data set [2], the concentration in solution (solubility at 24 h) was 1180 µg/mL (≈ 2.78 mM) and the logD is 0.84. Moreover, the Papp at 2 h, 10 µM in data set [3] is 0.8 ×10⁻⁶ cm/s. Moreover, in data set [4], the AUCinf entry is listed as “BLQ”, the Cmax entry is on record as “BLQ” and the t1/2 result was “BLQ”.

Consider `O=C(O)c1noc(-c2ccccc2)c1-c1cccc(-c2cc(Cl)cc(Cl)c2)c1` [Compound 8, 4-(3′,5′-Dichoro-3-biphenyl)-5-phenylisoxazole-3-carboxylic Acid], for which, in data set [4], the AUCinf result is reported as “BLQ”, the Cmax entry is recorded as “BLQ” and the t1/2 result is “BLQ”.

As usually defined, the solubility is the dissolved amount per volume that the medium holds. Read a high solubility as a readily soluble substance. As a reminder, the logD is lipophilicity at a set pH, counting ionised and neutral species. What is called Papp is the rate of passage across a membrane or cell layer, normalised by area and donor concentration. High values mean fast passage, low ones slow passage. As a reminder, the fraction unbound is the share of the substance not bound to proteins or other matrix. Read a low fraction unbound as extensive binding. Usually efflux ratio stands for the permeability from basolateral to apical divided by that in the opposite direction, in the common usage. Usually pIC50 stands for the IC50 on a negative log10 scale, so that one unit is a factor of ten. A high value points to a low IC50.
